From US20240173307A1, “MODULATORS OF THE INTEGRATED STRESS PATHWAY” (Calico Life Sciences LLC, priority 2017, published 2024)

System: HEK293T cells carrying the ATF4 luciferase reporter
Test: ATF4-Luc assay (in vitro model of vanishing white matter disease)
Format: cell-based
Conditions: Homo sapiens, HEK-293T, 1 μg/mL tunicamycin, 7 hours
Procedure: In order to test exemplary compounds of the invention in a cellular context, a stable VWMD cell line was first constructed. The ATF4 reporter was prepared by fusing the human full-length ATF4 5′-UTR (NCBI Accession No. BCO22088.2) in front of the firefly luciferase (FLuc) coding sequence lacking the initiator methionine as described in Sidrauski et al (eLife 2013). The construct was used to produce recombinant retroviruses using standard methods and the resulting viral supernatant was used to transduce HEK293T cells, which were then subsequently selected with puromycin to generate a stable cell line.
HEK293T cells carrying the ATF4 luciferase reporter were plated on polylysine coated 384-well plates (Greiner Bio-one) at 30,000 cells per well. Cells were treated the next day with 1 μg/mL tunicamycin and 200 nM of a compound of Formula (I) for 7 hours. Luminescence was measured using One Glo (Promega) as specified by the manufacturer. Cells were maintained in DMEM with L-glutamine supplemented with 10% heat-inactivated FBS (Gibco) and Antibiotic-Antimycotic solution (Gibco).
Table 2 below summarizes the EC50 data obtained using the ATF4-Luc assay for exemplary compounds of the invention.

In the case of O=C(COc1ccc(Cl)c(Cl)c1)NC12CCC(C(=O)NCc3ccc(C(F)(F)F)cc3)(CC1)[C@H](O)C2 (single isomer, unassigned) [Compound 263], the EC50 is reported as < 250 nM.
With O=C(COc1ccc(Cl)c(Cl)c1)NC12CCC(C(=O)NCc3ccc(C(F)(F)F)cc3)(CC1)[C@@H](O)C2 (single isomer, unassigned) [Compound 264] the EC50 was < 250 nM.
In the case of O=C(COc1ccc(Cl)c(F)c1)NC12CCC(C(=O)NCc3ccc(C(F)(F)F)cc3)(CC1)[C@@H](O)C2 (single isomer, unassigned) [Compound 266], the EC50 is reported as < 250 nM.
In the case of O=C(COc1ccc(Cl)c(F)c1)NC12CCC(C(=O)NCc3ccc(C(F)(F)F)cc3)(CC1)[C@H](O)C2 (single isomer, unassigned) [Compound 267], the EC50 is reported as < 250 nM.
With O=C(COc1ccc(Cl)c(F)c1)NC12CCC(C(=O)NCc3ccc(C(F)(F)F)cc3)(CC1)C[C@H]2O (single isomer, unassigned) [Compound 269] the EC50 was < 250 nM.
O=C(COc1ccc(Cl)c(F)c1)NC12CCC(C(=O)NCc3ccc(C(F)(F)F)cc3)(CC1)C[C@@H]2O (single isomer, unassigned) [Compound 270] was tested, and the EC50 was < 250 nM.
In the case of O=C(COc1ccc(Cl)c(F)c1)NC12CCC(C(=O)NCc3ccc(C(F)(F)F)cn3)(CC1)C[C@H]2O (single isomer, unassigned) [Compound 271], the EC50 is reported as < 250 nM.
With O=C(COc1ccc(Cl)c(F)c1)NC12CCC(C(=O)NCc3ccc(C(F)(F)F)cn3)(CC1)C[C@@H]2O (single isomer, unassigned) [Compound 272] the EC50 was < 250 nM.
For O=C(COc1ccc(Cl)c(F)c1)NC12CCC(C(=O)NCc3ccc(C(F)(F)F)cc3)(CC1)C(O)C2 (stereo not drawn) [Compound 110, 4-[2-(4-chloro-3-fluorophenoxy)acetamido]-2-hydroxy-N-{[4-(trifluoromethyl)phenyl]methyl}bicyclo[2.2.2]octane-1-carboxamide], the EC50 was < 250 nM.
For O=C(COc1ccc(Cl)c(F)c1)NC12CC(C(=O)NCc3cnccn3)(C1)C2 [Compound 164, 3-[2-(4-chloro-3-fluorophenoxy)acetamido]-N-[(pyrazin-2-yl)methyl]bicyclo[1.1.1]pentane-1-carboxamide], the EC50 was > 2000 nM.
In the case of O=C(COc1ccc(Cl)c(F)c1)NC12CC(C(=O)NCCc3c[nH]c4ccccc34)(C1)C2 [Compound 194, 3-[2-(4-chloro-3-fluorophenoxy)acetamido]-N-[2-(1H-indol-3-yl)ethyl]bicyclo[1.1.1]pentane-1-carboxamide], the EC50 is reported as < 250 nM.
With O=C(COc1ccc(Cl)c(F)c1)NC12CC(C(=O)NCCCc3cccnc3)(C1)C2 [Compound 253, 3-[2-(4-chloro-3-fluorophenoxy)acetamido]-N-[3-(pyridin-3-yl)propyl]bicyclo[1.1.1]pentane-1-carboxamide] the EC50 was 1000 to 2000 nM.
Compound O=C(COc1ccc(Cl)c(F)c1)NC12CC(C(=O)NCCCc3ccccn3)(C1)C2 [Compound 254, 3-[2-(4-chloro-3-fluorophenoxy)acetamido]-N-[3-(pyridin-2-yl)propyl]bicyclo[1.1.1]pentane-1-carboxamide] has an EC50 of 1000 to 2000 nM.
With O=C(COc1ccc(Cl)c(Cl)c1)NC12CCC(C(=O)NCc3ccc(C(F)(F)F)cc3)(CC1)C(O)C2 (stereo not drawn) [Compound 255, 4-[2-(3,4-dichlorophenoxy)acetamido]-2-hydroxy-N-{[4-(trifluoromethyl)phenyl]methyl}bicyclo[2.2.2]octane-1-carboxamide] the EC50 was < 250 nM.
For O=C(COc1ccc(Cl)c(F)c1)NC12CCC(C(=O)NCc3ccc(OC(F)F)cn3)(C1)C2 [Compound 256, 4-[2-(4-chloro-3-fluorophenoxy)acetamido]-N-{[5-(difluoromethoxy)pyridin-2-yl]methyl}bicyclo[2.1.1]hexane-1-carboxamide], the EC50 was 1000 to 2000 nM.
O=C(COc1ccc(Cl)c(F)c1)NC12CCC(C(=O)NCc3ccc(Cl)cn3)(CC1)CC2 [Compound 257, 4-[2-(4-chloro-3-fluorophenoxy)acetamido]-N-[(5-chloropyridin-2-yl)methyl]bicyclo[2.2.2]octane-1-carboxamide] was tested, and the EC50 was < 250 nM.
For Cc1cnc(CNC(=O)C23CCC(NC(=O)COc4ccc(Cl)c(F)c4)(CC2)CC3)cn1 [Compound 258, 4-[2-(4-chloro-3-fluorophenoxy)acetamido]-N-[(5-methylpyrazin-2-yl)methyl]bicyclo[2.2.2]octane-1-carboxamide], the EC50 was 500 to 1000 nM.
In the case of O=C(COc1ccc(Cl)c(F)c1)NC12CCC(C(=O)NCc3ccccn3)(CC1)CC2 [Compound 259, 4-[2-(4-chloro-3-fluorophenoxy)acetamido]-N-[(pyridin-2-yl)methyl]bicyclo[2.2.2]octane-1-carboxamide], the EC50 is reported as 500 to 1000 nM.
O=C(COc1ccc(Cl)c(F)c1)NC12CCC(C(=O)NCc3ccc(Cl)cc3)(CC1)CC2 [Compound 260, 4-[2-(4-chloro-3-fluorophenoxy)acetamido]-N-[(4-chlorophenyl)methyl]bicyclo[2.2.2]octane-1-carboxamide] was tested, and the EC50 was < 250 nM.
With O=C(COc1ccc(Cl)c(F)c1)NC12CCC(C(=O)NCc3ccc(C(F)(F)F)cn3)(CC1)CC2 [Compound 261, 4-[2-(4-chloro-3-fluorophenoxy)acetamido]-N-{[5-(trifluoromethyl)pyridin-2-yl]methyl}bicyclo[2.2.2]octane-1-carboxamide] the EC50 was < 250 nM.
With O=C(COc1ccc(Cl)c(F)c1)NC12CCC(C(=O)NCc3ccc(OC(F)F)nc3)(CC1)CC2 [Compound 262, 4-[2-(4-chloro-3-fluorophenoxy)acetamido]-N-{[6-(difluoromethoxy)pyridin-3-yl]methyl}bicyclo[2.2.2]octane-1-carboxamide] the EC50 was < 250 nM.
O=C(COc1ccc(Cl)c(F)c1)NC12CCC(C(=O)NCc3ccc(OC(F)F)cn3)(CC1)CC2 [Compound 265, 4-[2-(4-chloro-3-fluorophenoxy)acetamido]-N-{[5-(difluoromethoxy)pyridin-2-yl]methyl}bicyclo[2.2.2]octane-1-carboxamide] was tested, and the EC50 was < 250 nM.
With O=C(COc1ccc(Cl)c(F)c1)NC12CCC(C(=O)Nc3ccc(OC(F)F)nc3)(C1)C2 [Compound 268, 4-[2-(4-chloro-3-fluorophenoxy)acetamido]-N-[6-(difluoromethoxy)pyridin-3-yl]bicyclo[2.1.1]hexane-1-carboxamide] the EC50 was 250 to 500 nM.
With O=C(COc1ccc(Cl)c(F)c1)NC12CCC(C(=O)NCC(=O)c3ccc(Cl)cc3)(CC1)[C@@H](O)C2 [Compound 273, (2S)-4-[2-(4-chloro-3-fluorophenoxy)acetamido]-N-[2-(4-chlorophenyl)-2-oxoethyl]-2-hydroxybicyclo[2.2.2]octane-1-carboxamide] the EC50 was < 250 nM.
O=C(COc1ccc(Cl)c(F)c1)NC12CCC(C(=O)NCc3ccc(C(F)(F)F)cc3)(CC1)CC2O (stereo not drawn) [Compound 274, 4-[2-(4-chloro-3-fluorophenoxy)acetamido]-3-hydroxy-N-{[4-(trifluoromethyl)phenyl]methyl}bicyclo[2.2.2]octane-1-carboxamide] was tested, and the EC50 was < 250 nM.
For O=C(COc1ccc(Cl)c(F)c1)NC12CCC(C(=O)NCc3ccc(C(F)(F)F)cn3)(CC1)CC2O (stereo not drawn) [Compound 275, 4-[2-(4-chloro-3-fluorophenoxy)acetamido]-3-hydroxy-N-{[5-(trifluoromethyl)pyridin-2-yl]methyl}bicyclo[2.2.2]octane-1-carboxamide], the EC50 was < 250 nM.
In the case of O=C(COc1ccc(Cl)c(F)c1)NC12CCC(C(=O)NCC(=O)c3ccc(Cl)cc3)(CC1)[C@H](O)C2 [Compound 276, (2R)-4-[2-(4-chloro-3-fluorophenoxy)acetamido]-N-[2-(4-chlorophenyl)-2-oxoethyl]-2-hydroxybicyclo[2.2.2]octane-1-carboxamide], the EC50 is reported as < 250 nM.
With O=C(CNC(=O)C12CCC(NC(=O)COc3ccc(Cl)c(F)c3)(CC1)C[C@@H]2O)Cc1ccccc1 [Compound 277, (2S)-4-[2-(4-chloro-3-fluorophenoxy)acetamido]-2-hydroxy-N-(2-oxo-3-phenylpropyl)bicyclo[2.2.2]octane-1-carboxamide] the EC50 was < 250 nM.
With O=C(COc1ccc(Cl)c(F)c1)NC12CCC(C(=O)Nc3ccc(OC(F)F)nc3)(CC1)CC2 [Compound 278, 4-[2-(4-chloro-3-fluorophenoxy)acetamido]-N-[6-(difluoromethoxy)pyridin-3-yl]bicyclo[2.2.2]octane-1-carboxamide] the EC50 was < 250 nM.
For O=C(COc1ccc(Cl)c(F)c1)NC12CCC(C(=O)Nc3ccc(OC(F)(F)F)cn3)(CC1)CC2 [Compound 279, 4-[2-(4-chloro-3-fluorophenoxy)acetamido]-N-[5-(trifluoromethoxy)pyridin-2-yl]bicyclo[2.2.2]octane-1-carboxamide], the EC50 was < 250 nM.
O=C(COc1ccc(Cl)c(F)c1)NC12CCC(C(=O)Nc3ccc(OC(F)(F)F)nc3)(CC1)CC2 [Compound 280, 4-[2-(4-chloro-3-fluorophenoxy)acetamido]-N-[6-(trifluoromethoxy)pyridin-3-yl]bicyclo[2.2.2]octane-1-carboxamide] was tested, and the EC50 was < 250 nM.
In the case of O=C(COc1ccc(Cl)c(F)c1)NC12CCC(C(=O)Nc3ccc(OCC(F)(F)F)nc3)(CC1)CC2 [Compound 281, 4-[2-(4-chloro-3-fluorophenoxy)acetamido]-N-[6-(2,2,2-trifluoroethoxy)pyridin-3-yl]bicyclo[2.2.2]octane-1-carboxamide], the EC50 is reported as > 2000 nM.
In the case of O=C(COc1ccc(Cl)c(F)c1)NC12CC(C(=O)Nc3ccc(OC(F)F)nc3)(C1)C2 [Compound 282, 3-[2-(4-chloro-3-fluorophenoxy)acetamido]-N-[6-(difluoromethoxy)pyridin-3-yl]bicyclo[1.1.1]pentane-1-carboxamide], the EC50 is reported as < 250 nM.
